Measured values reported in publication PMC7393355, “A FRET-based screening method to detect potential inhibitors of the binding of CNNM3 to PRL2” (Scientific Reports, 2020).

Experiments:
[1] = system: binding of CNNM3-YPet and CyPet-PRL2 (CNNM3-PRL2 complex); assay: FRET-based inhibition test of the binding of CNNM3-YPet and CyPet-PRL2; design: species or system human; details: CNNM3-YPet 200 nM, CyPet-PRL2 200 nM, n = 6
Experimental: FRET measurements were conducted in TBS (50 mM Tris–HCl (pH 8.0) and 150 mM NaCl). Proteins were mixed in 96-well plates and incubated at R.T. for 1 h. Fluorescence intensities were measured using an excitation wavelength of 435 nm and an emission wavelength of 530 nm with a Cytation 3 (BioTek).
The emission spectra were measured with each component at 200 nM using the Cytation 3 (BioTek) with 435 nm excitation (Supplementary Fig. 2), and the original data are shown in Supplementary Table 1. The FRET intensity was calculated by Eq. (1).1 IFRET=IA-raw-Dleakage-Adirect where IA-raw is the intensity measured at 530 nm with 435 nm excitation, Dleakage is the leakage of the donor emission into the acceptor wavelength (530 nm) upon donor excitation, and Adirect is the direct excitation of the acceptor with the donor wavelength (435 nm).
The inhibition of complex formation was assayed by pre-incubating the binding partner (200 nM) with inhibitory factors (1, 10 μM) for 20 min at R.T., followed by addition of the other protein (200 nM) (Figs. 3B, 4C). The effects of divalent cations (10 mM) and nucleotides (3 mM) were also assayed similarly (Fig. 5).
The peptides for the peptide inhibition test were synthesized by Shanghai Dechi Biosciences (Fig. 6C,D). The peptide sequences were as follows: peptide 1, IVQKVNNEGEGDPFYEVLG; peptide 2, […] (an S–S bond was formed between the cysteine residues, as verified by HPLC and mass spectrometry). The peptides were dissolved in TBS buffer at 10 mM before use.
FRET data were evaluated by subtracting backgrounds (fluorescence intensities of CyPet-PRL2, CNNM3-YPet and a blank well). All data analysis was performed using GraphPad Prism 6 (GraphPad Software) with the methods described in each legend.

PRL2 = assay: Isothermal titration calorimetry (ITC) with PRL2; type: binding, human; details: 25 °C, cell 20 μM PRL2, syringe 200 μM ligand, 20 mM Tris-HCl pH 7.0, 50 mM NaCl, 1 mM TCEP, 2% DMSO, repeated twice
Experimental: ITC experiments were performed by ITC200 (GE Healthcare, USA). PRL2 and CNNM3 CBS domain proteins were purified in Buffer A (20 mM Tris–HCl (pH 7.0), 50 mM NaCl, and 1 mM TCEP). JMS-053 (Aobious, USA) was dissolved in 100% DMSO at 10 mM, further diluted to 200 μM with Buffer A. The ITC cell was thermally equilibrated at 25 °C and then filled with 250 μl of 20 μM PRL2, while the syringe was filled with 40 μl of 200 μM JMS-053 or CNNM3 CBS protein. In the case of JMS-053, 2% DMSO at a final concentration was added into PRL2 protein solution. Data were analysed by Microcal Origin software.

Molecule: [Zn+2] [Zn^2+]
- decrease of FRET intensity by divalent cation ([1]; 10 mM divalent cation): 90.3%

Molecule: N=C1C(=O)NC(=O)c2cc(-c3ccccc3)sc21 [JMS-053, reference compound]
- interaction with PRL2 by ITC (in words) (PRL2): no interaction
- effect on the interaction between CNNM3 and PRL2 (in words) [1]: no effect

Molecule: [Mg+2] [Mg^2+]
- effect of divalent cation on FRET intensity (in words) ([1]; 10 mM divalent cation): no effect on the FRET intensity

Molecule: Nc1ncnc2c1ncn2[C@@H]1O[C@H](COP(=O)(O)OP(=O)(O)O)[C@@H](O)[C@H]1O [ADP, reference compound]
- alteration of FRET intensity by nucleotide ([1]; 3 mM nucleotide): 9.6%

Molecule: LAICQRVNNEGEGDPFYEVCGIVT (an S–S bond was formed between the cysteine residues (disulfide) [peptide 2, longer CNNM CBS loop peptide with two residues mutated to cysteine to form an S–S bond]
- inhibition of complex formation ([1]; peptide 100 μM): 20%
- inhibition of complex formation ([1]; peptide 500 μM): 50%

Molecule: IVQKVNNEGEGDPFYEVLG [peptide 1, shorter synthesized peptide derived from the CNNM CBS loop]
- effect of peptide on complex formation (in words) ([1]; peptide 100 μM): failed to interrupt complex formation
